# Reference: patent publication US20240279174A1, “ANTIBIOTICS COMPRISING LPXH-TARGETING COMPOUNDS AND METHODS OF MAKING AND USING THE SAME” (Duke University, priority 2019, published 2024)
# Like-named read-outs stand apart in the source and are kept apart here.
# Columns and labels:
# [1] = system: K. pneumoniae (ATCC 10031); assay: MIC assay (broth microdilution), K. pneumoniae; assay type: cell-based; conditions: Klebsiella pneumoniae, ATCC10031
# Procedure: (§1) The MIC assay protocol was adapted from the broth microdilution methods described by the National Committee for Clinical Laboratory Standards using 96-well plates as described previously. In brief, overnight bacterial cultures were diluted to an OD600 of 0.006 in cation-adjusted Mueller-Hinton medium containing 7% DMSO and incubated at 37° C. for 22 h in the presence of varying concentrations of inhibitors. Following overnight incubation, each well is treated with 10 μL of 3-(4,5-dimethylthiazol-2-yl)-2,5-diphenyltetrazolium bromide (MTT, 5 mg/mL) for 3 h. Finally, the culture is solubilized by addition of 2-propanol, and the results are read by taking the difference of the UV reading at both 570 and 690 nm. MIC values were reported as the lowest compound concentration that inhibited bacterial growth. The baseline for inhibited cell growth was determined to be <4× the average control reading due to the baseline optical density of the initial starting bacterial culture.
# [2] = molecular target: T1, K. pneumoniae LpxH (KpLpxH) (Klebsiella pneumoniae subsp. pneumoniae (strain ATCC 700721 / MGH 78578), UniProt A6T5R0); conditions: previously reported value for 2; read-out: KI of KpLpxH inhibition (reported value); cited from earlier work
# [3] = molecular target: T1, K. pneumoniae LpxH (KpLpxH); assay: LpxE-coupled malachite green LpxH activity assay (KpLpxH inhibition); assay type: biochemical; conditions: for remaining activity at 0.1 µM: read-out: Percentage Activity of KpLpxH (vi/v0); for inhibition at 0.1 µM: read-out: Percentage Inhibition of KpLpxH
# Procedure: Evaluation of LpxH inhibition by analogs: After completing the synthesis of sulfonyl piperazine compounds with various forms of linkers, the KpLpxH inhibition was biochemically characterized by these analogs at 0.1 μM using the nonradioactive, colorimetric malachite green assay that we had previously reported. […] Such an enhanced potency requires the presence of the hydroxamate group, as its substitution with a carboxylate group in compound 7 reduced the compound activity (vi/v0=30±6%).
# The LpxE-coupled LpxH activity assay was conducted as described previously using the GB1-K. pneumoniae LpxH-His10 fusion protein. Briefly, two reaction mixtures were prepared. Mixture 1 contains 20 mM Tris-HCl (pH 8.0), 0.5 mg/mL BSA, 0.02% Triton X-100, 1 mM MnCl2, 1 mM DTT, 10% DMSO, and 200 µM substrate (UDP-DAGn), and mixture 2 is comprised of the same buffer, but instead of substrate, contains both LpxH (20 ng/ml) and 2× inhibitor. These mixtures were then pre-incubated at 37° C. for 10 min. To initiate the reaction, an equal volume of the LpxH mixture (mixture 2) was added to the substrate mixture (mixture 1) at 37° C. The final reaction solution contains 100 μM substrate, 10 ng/ml enzyme, and 1× inhibitor. At the desired reaction time points, an aliquot of 20 μL reaction mixture was removed and added to a well in 96-well half-area plate containing 5 mM EDTA (final concentration) to quench the LpxH reaction. Purified Aquifex aeolicus LpxE was then added to a final concentration of 5 μg/mL. The plate was incubated at 37° C. for 30 min followed by addition of formic acid to a final concentration of 3.75 M to quench the LpxE reaction. The malachite green reagent (Sigma Aldrich, catalog MAK307) was diluted 5-fold into the solutions, and the plate was incubated for 30 min at room temperature before the absorbance at 620 nm was measured. All measurements were done in triplicates, and standard error (S.E.) was calculated.
# E. coli W3110 = assay: MIC assay (broth microdilution), E. coli; assay type: cell-based; conditions: Escherichia coli, Table 4
# Procedure: as §1
# [4] = system: E. coli strains with a compromised outer membrane (yhjD*ΔkdtA) or with an efflux pump deletion (ΔtolC); conditions: cited from earlier work
# WT K. pneumoniae = conditions: cited from earlier work
# [5] = K. pneumoniae (ATCC 10031), in vitro, read-out: MIC
# [6] = Table 4, read-out: MIC - K. pneumoniae (ATCC 10031)
# [7] = 0.1 μM inhibitor, normalized against KpLpxH activity in 10% DMSO
# [8] = Table 5, read-out: IC50: Average
Compound,"MIC [1, 5]","MIC [1, 6]","remaining activity at 0.1 µM [3, 7]",inhibition at 0.1 µM ([3]; 0.1 μM inhibitor),"IC50 [3, 8]",MIC (E. coli W3110),also measured
CC(=O)N1CCc2cc(S(=O)(=O)N3CCN(c4cc(Cl)cc(C(F)(F)F)c4)CC3)ccc21 [JH-LPH-33],0.83 µg/mL,0.83 µg/mL,21%,79%,104 nM,,Ki [2]: 10 nM
CN(c1ccccc1C(=O)Nc1ccc(S(=O)(=O)N2CCN(c3cc(Cl)cc(Cl)c3)CC2)cc1)S(C)(=O)=O [JH-LPH-105],,0.3 µg/mL,,,,2 µg/mL,
"CC(=O)N1CCc2cc(S(=O)(=O)N3CCN(c4cccc(C(F)(F)F)c4)CC3)ccc21 [AZ1, reference compound]",> 64 µg/mL,> 64 µg/mL,78%,22%,,,antibiotic activity [4]: weak antibiotic activity; antibiotic activity (WT K. pneumoniae): weak antibiotic activity
CN(c1ccccc1C(=O)Nc1ccc(S(=O)(=O)N2CCN(c3cc(C(F)(F)F)cc(Cl)n3)CC2)cc1)S(C)(=O)=O [JH-LPH-107],,0.04 µg/mL,,,,1 µg/mL,
CN(c1ccccc1C(=O)N1CCc2cc(S(=O)(=O)N3CCN(c4cc(C(F)(F)F)cc(Cl)n4)CC3)ccc21)S(C)(=O)=O [JH-LPH-106],,,,,,1.7 µg/mL,
O=C(CCCCCNC(=O)Nc1ccc(S(=O)(=O)N2CCN(c3cc(C(F)(F)F)cc(Cl)n3)CC2)cc1)NO [JH-LPH-104],,1 µg/mL,,,0.23 nM,16 µg/mL,
O=C(CCCCNC(=O)N1CCc2cc(S(=O)(=O)N3CCN(c4cc(Cl)cc(C(F)(F)F)c4)CC3)ccc21)NO [JH-LPH-45],18.7 µg/mL,18.7 µg/mL,18 ± 1%,82%,17 nM,,"IC50 [3]: 18 nM; Ki [3]: 7.3 nM; Percentage Activity of KpLpxH (vi/v0) ([3]; 0.1 μM inhibitor, normalized against KpLpxH activity in 10% DMSO, listed as 8 (JH-LPH-45)): 18 ± 1%"
